Data taken from patent US8710038B2, “Pyrazole kinase modulators and methods of use” (Exelixis, Inc., priority 2004, dated 2014).

How the values were obtained:
EGFR = EGFR (Homo sapiens, UniProt P00533); assay: EGFR kinase inhibition assay; type: biochemical
flt-3 = target: T1, flt-3 (Homo sapiens, UniProt P36888); assay: flt-3 Luciferase-Coupled Chemiluminescent Kinase assay (LCCA); type: biochemical
T1 construct: baculovirus expressed human Flt-3 kinase domain R571-S993
T1 sequence (P36888 571-993): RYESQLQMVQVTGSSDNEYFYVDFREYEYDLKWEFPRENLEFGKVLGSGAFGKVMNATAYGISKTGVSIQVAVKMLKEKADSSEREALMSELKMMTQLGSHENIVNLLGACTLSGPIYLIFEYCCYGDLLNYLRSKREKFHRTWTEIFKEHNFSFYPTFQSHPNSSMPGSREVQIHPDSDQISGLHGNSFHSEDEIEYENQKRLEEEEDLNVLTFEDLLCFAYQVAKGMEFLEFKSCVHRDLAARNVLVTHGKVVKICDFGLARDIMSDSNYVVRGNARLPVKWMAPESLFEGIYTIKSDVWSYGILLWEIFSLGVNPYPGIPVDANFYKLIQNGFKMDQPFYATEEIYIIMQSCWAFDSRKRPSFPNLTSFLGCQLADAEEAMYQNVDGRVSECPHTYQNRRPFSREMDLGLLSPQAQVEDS
Method in brief: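 Baculovirus-expressed human Flt-3 kinase domain (R571-S993, 5 nM) was reacted with 5 μM ATP and 3 μM poly-EY in Tris pH 7.5 buffer with MgCl2/MnCl2 for 3 h at ambient temperature. Remaining ATP was read by luciferase-luciferin chemiluminescence, with ATP consumption standardized to 25-45%, for IC50.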

EphB4 = target: T2, EphB4 (Homo sapiens, UniProt P54760); assay: EphB4 kinase inhibition assay; type: biochemical
T2 sequence (P54760 16-987): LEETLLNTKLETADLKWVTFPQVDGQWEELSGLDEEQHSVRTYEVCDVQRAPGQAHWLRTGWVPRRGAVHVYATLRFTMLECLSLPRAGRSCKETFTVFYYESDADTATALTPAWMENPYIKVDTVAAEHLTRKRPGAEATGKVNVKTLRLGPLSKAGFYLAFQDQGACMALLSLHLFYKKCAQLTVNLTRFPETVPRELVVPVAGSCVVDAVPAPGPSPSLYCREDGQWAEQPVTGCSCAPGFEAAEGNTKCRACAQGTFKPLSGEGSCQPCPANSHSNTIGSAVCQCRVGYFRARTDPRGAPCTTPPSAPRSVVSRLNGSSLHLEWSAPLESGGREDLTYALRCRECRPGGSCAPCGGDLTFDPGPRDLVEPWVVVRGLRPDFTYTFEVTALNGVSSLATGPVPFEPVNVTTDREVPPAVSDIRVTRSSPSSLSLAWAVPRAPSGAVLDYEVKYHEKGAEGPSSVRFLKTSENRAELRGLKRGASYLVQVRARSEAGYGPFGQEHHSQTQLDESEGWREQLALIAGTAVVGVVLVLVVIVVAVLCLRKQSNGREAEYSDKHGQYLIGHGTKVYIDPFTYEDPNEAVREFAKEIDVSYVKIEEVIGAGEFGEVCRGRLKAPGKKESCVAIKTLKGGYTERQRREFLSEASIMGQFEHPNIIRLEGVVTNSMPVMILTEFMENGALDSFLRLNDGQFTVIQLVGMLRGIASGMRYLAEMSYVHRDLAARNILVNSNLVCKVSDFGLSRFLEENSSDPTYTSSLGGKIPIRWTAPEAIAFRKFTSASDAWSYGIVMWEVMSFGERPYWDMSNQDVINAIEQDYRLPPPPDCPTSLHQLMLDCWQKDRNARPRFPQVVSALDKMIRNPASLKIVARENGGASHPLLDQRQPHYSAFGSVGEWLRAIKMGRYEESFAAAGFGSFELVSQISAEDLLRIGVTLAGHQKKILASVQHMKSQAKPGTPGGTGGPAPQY
Method in brief: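 ATP near each kinase's KM; 10-point dose-response fitted to a four-parameter equation for IC50. Formats: γ33P-ATP transfer to plate-coated substrate (1.5-2.5 h, ambient, scintillation), luciferase-coupled ATP-consumption read-out (2-4 h, 25-45% ATP consumed), or AlphaScreen with biotinylated poly(Glu,Tyr) 4:1 (1 h).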

c-Kit = c-Kit (Homo sapiens, UniProt P10721); assay: c-Kit biochemical assay (AlphaScreen)
Chain of c-Kit (P10721 26-976): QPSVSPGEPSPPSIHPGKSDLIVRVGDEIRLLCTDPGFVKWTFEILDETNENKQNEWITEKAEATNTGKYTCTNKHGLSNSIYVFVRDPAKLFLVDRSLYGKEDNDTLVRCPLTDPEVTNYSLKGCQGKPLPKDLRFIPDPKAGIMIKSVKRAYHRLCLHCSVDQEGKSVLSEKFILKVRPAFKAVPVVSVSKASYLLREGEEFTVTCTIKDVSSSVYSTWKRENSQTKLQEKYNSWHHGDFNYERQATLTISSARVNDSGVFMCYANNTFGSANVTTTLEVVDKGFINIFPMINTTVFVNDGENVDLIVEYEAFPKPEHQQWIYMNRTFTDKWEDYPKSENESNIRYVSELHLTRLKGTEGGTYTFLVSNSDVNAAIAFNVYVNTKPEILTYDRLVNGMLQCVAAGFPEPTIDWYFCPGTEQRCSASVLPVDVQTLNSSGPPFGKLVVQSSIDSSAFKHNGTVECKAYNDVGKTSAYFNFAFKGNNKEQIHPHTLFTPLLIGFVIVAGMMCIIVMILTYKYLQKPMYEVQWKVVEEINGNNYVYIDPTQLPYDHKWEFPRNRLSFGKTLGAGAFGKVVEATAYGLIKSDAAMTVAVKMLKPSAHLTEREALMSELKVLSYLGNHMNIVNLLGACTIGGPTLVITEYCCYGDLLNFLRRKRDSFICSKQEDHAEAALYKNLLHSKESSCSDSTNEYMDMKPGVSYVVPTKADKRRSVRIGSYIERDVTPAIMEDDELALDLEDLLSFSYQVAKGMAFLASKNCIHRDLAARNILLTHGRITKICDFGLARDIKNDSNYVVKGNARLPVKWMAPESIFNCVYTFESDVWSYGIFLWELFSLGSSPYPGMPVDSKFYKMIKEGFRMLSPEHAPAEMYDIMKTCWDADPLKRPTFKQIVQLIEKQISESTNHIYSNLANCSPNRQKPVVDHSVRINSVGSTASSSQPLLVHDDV
Method in brief: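 Kinase, compound, ATP and biotinylated poly(Glu,Tyr) 4:1 reacted 1 hr at ambient temperature; quenched with EDTA buffer (pH 7.4) containing streptavidin donor and anti-phosphotyrosine PY100 acceptor beads, incubated 16 hr, then AlphaScreen signal read to give IC50.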

Chain of EGFR (P00533 25-1210, species assumed): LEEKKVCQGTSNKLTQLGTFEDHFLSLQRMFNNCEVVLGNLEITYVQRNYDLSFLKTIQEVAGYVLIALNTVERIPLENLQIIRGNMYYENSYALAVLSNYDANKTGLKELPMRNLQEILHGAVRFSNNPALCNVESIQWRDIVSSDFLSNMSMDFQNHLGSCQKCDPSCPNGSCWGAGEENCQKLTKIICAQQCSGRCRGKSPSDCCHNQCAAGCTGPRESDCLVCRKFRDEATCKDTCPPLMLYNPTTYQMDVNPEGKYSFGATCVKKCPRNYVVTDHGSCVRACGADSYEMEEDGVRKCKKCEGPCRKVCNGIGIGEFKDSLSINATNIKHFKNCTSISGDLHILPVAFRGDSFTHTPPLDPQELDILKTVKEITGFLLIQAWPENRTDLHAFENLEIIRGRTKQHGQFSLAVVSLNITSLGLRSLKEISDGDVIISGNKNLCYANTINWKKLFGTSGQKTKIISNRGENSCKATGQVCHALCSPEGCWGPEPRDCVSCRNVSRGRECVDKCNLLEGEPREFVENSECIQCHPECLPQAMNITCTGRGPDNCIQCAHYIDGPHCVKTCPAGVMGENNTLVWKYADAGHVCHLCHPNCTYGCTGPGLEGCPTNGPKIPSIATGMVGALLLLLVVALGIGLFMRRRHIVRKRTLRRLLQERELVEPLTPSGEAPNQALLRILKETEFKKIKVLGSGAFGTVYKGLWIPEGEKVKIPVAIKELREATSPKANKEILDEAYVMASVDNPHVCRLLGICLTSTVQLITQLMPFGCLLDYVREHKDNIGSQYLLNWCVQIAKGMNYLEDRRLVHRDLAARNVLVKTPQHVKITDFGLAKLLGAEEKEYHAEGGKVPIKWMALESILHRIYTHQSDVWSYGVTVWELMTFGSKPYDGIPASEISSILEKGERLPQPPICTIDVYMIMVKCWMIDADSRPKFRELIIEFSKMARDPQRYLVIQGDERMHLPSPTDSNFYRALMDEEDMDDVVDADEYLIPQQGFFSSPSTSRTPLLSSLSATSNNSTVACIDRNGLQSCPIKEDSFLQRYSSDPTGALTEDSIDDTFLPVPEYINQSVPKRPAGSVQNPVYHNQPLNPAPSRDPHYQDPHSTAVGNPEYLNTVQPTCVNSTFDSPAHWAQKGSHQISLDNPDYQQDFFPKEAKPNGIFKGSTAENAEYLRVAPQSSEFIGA

Oc1ccc(/C=C/c2cc(-c3ccccc3F)[nH]n2)cc1 [Entry 57, 4-{(E)-2-[5-(2-fluorophenyl)-1H-pyrazol-3-yl]ethenyl}phenol] was tested, and the IC50 (EGFR) was > 5000 nM, the IC50 (flt-3) was 50 to 500 nM and the IC50 (EphB4) was > 5000 nM. The IC50 (c-Kit) was 50 to 500 nM.

In the case of CN1CCN(c2cccc(-c3cc(/C=C/c4ccc(O)cc4)[nH]n3)c2)CC1 [Entry 58, 4-((E)-2-{3-[3-(4-methylpiperazin-1-yl)phenyl]-1H-pyrazol-5-yl}ethenyl)phenol], the IC50 (EGFR) is reported as > 5000 nM, the IC50 (flt-3) is reported as 50 to 500 nM and the IC50 (EphB4) is reported as > 5000 nM. The IC50 (c-Kit) was 50 to 500 nM.

For COc1cc(/C=C/c2cc(/C=C/c3ccc(F)cc3F)n[nH]2)ccc1O [Entry 59, 4-((E)-2-{3-[(E)-2-(2,4-difluorophenyl)ethenyl]-1H-pyrazol-5-yl}ethenyl)-2-(methyloxy)phenol], the IC50 (EGFR) was > 5000 nM, the IC50 (flt-3) was < 50 nM and the IC50 (EphB4) was > 5000 nM. For the same molecule, the IC50 (c-Kit) was 50 to 500 nM.

In the case of Oc1ccc(/C=C/c2cc(-c3ccc(F)cc3)[nH]n2)cc1 [Entry 60, 4-{(E)-2-[5-(4-fluorophenyl)-1H-pyrazol-3-yl]ethenyl}phenol], the IC50 (EGFR) is reported as > 5000 nM, the IC50 (flt-3) is reported as < 50 nM and the IC50 (EphB4) is reported as > 5000 nM. For the same molecule, the IC50 (c-Kit) was 50 to 500 nM.

With Oc1ccc(/C=C/c2cc(-c3ccc(Cl)cc3)n[nH]2)cc1 [Entry 61, 4-{(E)-2-[3-(4-chlorophenyl)-1H-pyrazol-5-yl]ethenyl}phenol] the IC50 (EGFR) was > 5000 nM, the IC50 (flt-3) was 50 to 500 nM and the IC50 (EphB4) was > 5000 nM. It also gave an IC50 (c-Kit) of 500 to 5000 nM.

O=C(Nc1ccccc1)Nc1ccc(-c2cc(-c3ccccc3)n[nH]2)cc1 [Entry 76, N-phenyl-N′-[4-(3-phenyl-1H-pyrazol-5-yl)phenyl]urea] was tested, and the IC50 (EGFR) was > 5000 nM, the IC50 (flt-3) was 500 to 5000 nM and the IC50 (EphB4) was > 5000 nM. It also gave an IC50 (c-Kit) of 500 to 5000 nM.
